Assays:
[1] = Half-life analysis in PBS pH 7.4; format: physicochemical; conditions: PBS pH 7.4, 37° C.
Method: Half-life analysis was performed by Eurofins Panlabs Inc. using 1 μM of compound with a final DMSO concentration of 0.5%. PBS or plasma from CD-1 mice was pre-warmed to 37° C. for 5 mins before addition of the test compounds and continued incubation at 37° C. At 0, 30, 60, 120, 240, and 1440 mins an aliquot of solution containing compounds was mixed with acetonitrile/methanol, mixed, and centrifuged. The supernatants were used for HPLC-MS/MS analysis.

[2] = test system: alpha-dystroglycan (α-DG); test: Immunoblot of total protein lysates, C2C12 myotubes; format: cell-based, murine; conditions: 5 μM, 48 hours
Method: (§1) Myotubes treated for 48 hrs were lysed using RIPA buffer (Thermo Fisher Scientific) containing Halt Protease Inhibitor Cocktail (Thermo Fisher Scientific). Cell lysates in RIPA buffer were rocked for 1 hr at 4° C. and centrifuged at 1,000 RPM for 30 mins at 4° C. The supernatant was collected, quantified for protein concentration using the DC protein assay (Bio-Rad), and normalized to 2 mg/ml in water and Laemmli sample buffer with a final concentration of 10% glycerol (Sigma-Aldrich), 5% beta-mercaptoethanol (Sigma-Aldrich), 3% sodium dodecyl sulfate (Sigma-Aldrich), and 0.05% bromophenol blue (Sigma-Aldrich). For SDS-PAGE, samples were heated to 95° C. for 2 mins before loading 40 μg onto 4-12% tris-glycine or bis-tris polyacrylamide gels (Novex), electrophoresed for 2 hrs at 100 volts at RT, and transferred to a nitrocellulose membrane for 2 hrs at 100 volts at 4° C. Ponceau S staining was performed to visualize protein loading and verify protein transfer. […] Autoradiography films were developed using a SRX-101A tabletop processor (Konica Minolta), scanned to a digital file, and analyzed by densitometry of bands using ImageJ version 1.51 s. […]

[3] = test system: alpha-dystroglycan (α-DG) at the cell surface; test: Cell surface protein biotinylation and immunoblot, C2C12 myotubes; format: cell-based, murine; conditions: 5 μM, 48 hours
Method: as §1

[4] = test system: H2K mdx myotubes; test: Differentiation of mdx myotubes (fusion index, MYOG gene expression); format: cell-based, murine; conditions: mdx myotubes, 1, 5 and 10 μM

For `CCN(CC)c1ccc2cc(C(=O)Nc3ccc(C(=O)N4CCCCCC4)cc3)c(=O)oc2c1` [OT-9], the half-life at 1 μM [1] was 49 min, the “increase of core α-DG in total protein lysates” value [2] was 1.5 fold and the “levels of glycosylated α-DG in total protein lysates” value [2] was “did not increase levels of glycosylated α-DG”. The “increase of core α-DG at the cell surface” value [3] was 1.6 fold, the “increase of glycosylated α-DG at the cell surface” value [3] was 1.8 fold and the MYOG gene expression [4] was “slight increase”. For the same compound, the fusion index [4] was “slight increase”.

From US20230348394A1, “COMPOSITIONS AND METHODS FOR TREATING MUSCULAR DYSTROPHIES” (The Regents of the University of California, priority 2020, published 2023)
